Laboratory results taken from PubChem BioAssay (NCI).
Values joined by “and” are separate entries in the source; they are usually repeats but may differ in a detail not shown here. Equal values may be shown once.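 Values below derive from 48-hour exposures of cells grown in 96-well plates, with endpoints linearly interpolated between the two concentrations bracketing the appropriate inhibition level. TGI is the concentration that stops growth completely.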

How the values were obtained:
Assay in all cases: inhibition of tumour cell growth, NCI panel, 48 h
HT29 colon = system: HT29 colon
OVCAR-5 ovarian = system: OVCAR-5 ovarian
PC-3 prostate = system: PC-3 prostate
LOX IMVI melanoma = system: LOX IMVI melanoma
ACHN renal = system: ACHN renal
OVCAR-3 ovarian = system: OVCAR-3 ovarian
HOP-92 NSCLC = system: HOP-92 NSCLC
SNB-19 CNS = system: SNB-19 CNS
A549 NSCLC = system: A549 NSCLC
MCF7 breast = system: MCF7 breast

| SMILES | TGI (HT29 colon) | TGI (OVCAR-5 ovarian) | TGI (PC-3 prostate) [µM] | TGI (LOX IMVI melanoma) [µM] | TGI (ACHN renal) | TGI (OVCAR-3 ovarian) | TGI (HOP-92 NSCLC) | TGI (SNB-19 CNS) [µM] | TGI (A549 NSCLC) [µM] | TGI (MCF7 breast) [µM] |
| --- | --- | --- | --- | --- | --- | --- | --- | --- | --- | --- |
| CC[C@H]1CN2CCc3cc(OC)c(OC)cc3[C@@H]2C[C@@H]1C[C@H]1NCCc2cc(OC)c(OC)cc21 | 0.242 µM and 0.168 µM | 0.2 µM and 0.551 µM | 0.103 | 0.0205 | 0.0974 µM and 0.428 µM | 0.187 µM and 0.18 µM | 0.196 µM and 0.0779 µM | – | – | – |
| Cc1cc(=O)c2c([nH]1)NS(=O)(=O)NC2=O | > 100 µM | – | – | – | – | > 100 µM | > 100 µM | > 100 | > 100 | – |
| COc1ccc(C2(CC(C)O)SCCCS2)cc1 (centres undefined) | > 100 µM | > 100 µM | > 100 | – | > 100 µM | > 100 µM | > 100 µM | > 100 | > 100 | > 100 |
| CS(=O)(=O)OCCn1c(=O)n(CCOS(C)(=O)=O)c(=O)n(CCOS(C)(=O)=O)c1=O | > 100 µM | > 100 µM | – | > 100 | > 100 µM | > 100 µM | – | > 100 | > 100 | > 100 |
| CC(=O)N(C(C)=O)C1=C2c3ccccc3N(S(=O)(=O)c3ccccc3)C2n2c(=O)n(-c3ccccc3)c(=O)n2C1 (centres undefined) | > 100 µM | > 100 µM | – | 81.3 | > 100 µM | 81.9 µM | 73.9 µM | > 100 | > 100 | – |
| CCOC(=O)/C=C(\C)c1ccc(C)cc1C | > 100 µM | > 100 µM | – | 31.3 | > 100 µM | – | 63.8 µM | > 100 | > 100 | – |
| O=c1ccc2cc3ccc4cccc5ccc(c2o1)c3c45 | > 100 µM | – | – | 55.6 | 34 µM | – | > 100 µM | > 100 | – | – |
| BrC/C=C/C[P+](c1ccccc1)(c1ccccc1)c1ccccc1 | – | > 100 µM | – | 33.5 | > 100 µM | 58.7 µM | 36.1 µM | > 100 | > 100 | – |
| O=C(CCCN1CCC2(CC1)CC(=O)N(N1CCOCC1)C2=O)c1ccccc1 | > 100 µM | > 100 µM | > 100 | > 100 | > 100 µM | > 100 µM | – | > 100 | > 100 | > 100 |
| Cc1ccccc1C(O)(c1nccn1C)c1nccn1C | > 100 µM | > 100 µM | > 100 | – | > 100 µM | > 100 µM | > 100 µM | > 100 | > 100 | > 100 |
